Measured values as given in US12209102B2, “Heterocyclic compounds and uses thereof” (Kumquat Biosciences Inc., priority 2022, dated 2025).

What was measured:
K-Ras G12V = biological target: T1, K-Ras G12V (Homo sapiens, UniProt P01116, G12V); assay: HTRF resonance energy transfer assay, K-Ras G12V / SOS1 interaction; type: biochemical; details: HTRF assay of Example 5; read-out: IC50 against K-Ras G12V
T1 construct: made in house; host or cells: E. coli BL21 (DE3)
Outline: (§1)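 Compounds, tested in duplicate at 10 μM down to 0.01 μM, were read after about 10 min or more by HTRF as the 665/620 nm emission ratio (337 nm excitation) to derive IC50. This ratio reports FRET between an anti-GST-Eu donor on GST-K-Ras (wild-type or mutant) and an anti-6His-XL665 acceptor on His-hSOS1. Buffer: ~5 mM HEPES pH 7.4, 150 mM NaCl, 1 mM DTT, 0.05% BSA, 0.0025% Igepal.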

K-Ras G12D = biological target: T2, K-Ras G12D (Homo sapiens, UniProt P01116, G12D); assay: HTRF resonance energy transfer assay, K-Ras G12D / SOS1 interaction; type: biochemical; details: HTRF assay of Example 5; read-out: IC50 against K-Ras G12D
T2 construct: made in house; host or cells: E. coli BL21 (DE3)
T2 sequence (P01116 1-188 isoform P01116-2 G12D): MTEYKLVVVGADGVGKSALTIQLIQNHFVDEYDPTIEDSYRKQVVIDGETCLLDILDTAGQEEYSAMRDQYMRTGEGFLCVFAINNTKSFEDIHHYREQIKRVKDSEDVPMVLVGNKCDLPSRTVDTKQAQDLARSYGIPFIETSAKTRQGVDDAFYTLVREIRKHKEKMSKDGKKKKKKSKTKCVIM
Outline: as §1

SW620 cells = assay: Ras cellular assay, growth of cells with K-Ras G12V mutation (CellTiter-Glo); type: cell-based; details: Homo sapiens, SW-620; cell growth, Example 9, G12V mutation; read-out: IC50 against SW620 cells
Outline: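 IC50 values came from a four-parameter fit of CellTiter-Glo viability, read roughly 6 days after dosing with e.g. a 10-point threefold dilution series. G12V-mutant SW620 cells (e.g. 800 per well) had been plated the previous day in RPMI-1640/10% heat-inactivated FBS, on tissue culture-treated or ultra-low attachment plates.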

K-Ras WT = biological target: T3, K-Ras WT (Homo sapiens, UniProt P01116); assay: HTRF resonance energy transfer assay, K-Ras WT / SOS1 interaction; type: biochemical; details: HTRF assay of Example 5; read-out: IC50 against K-Ras WT
T3 construct: made in house; host or cells: E. coli BL21 (DE3)
T3 sequence (P01116 1-188 isoform P01116-2): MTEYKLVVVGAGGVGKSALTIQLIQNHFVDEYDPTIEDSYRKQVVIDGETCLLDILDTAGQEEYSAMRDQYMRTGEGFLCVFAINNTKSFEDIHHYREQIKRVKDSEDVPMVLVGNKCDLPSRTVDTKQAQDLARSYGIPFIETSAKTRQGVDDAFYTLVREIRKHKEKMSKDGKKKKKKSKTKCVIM
Outline: as §1

K-Ras G12S = biological target: T4, K-Ras G12S (Homo sapiens, UniProt P01116, G12S); assay: HTRF resonance energy transfer assay, K-Ras G12S / SOS1 interaction; type: biochemical; details: HTRF assay of Example 5; read-out: IC50 against K-Ras G12S
T4 construct: made in house; host or cells: E. coli BL21 (DE3)
T4 sequence (P01116 1-188 isoform P01116-2 G12S): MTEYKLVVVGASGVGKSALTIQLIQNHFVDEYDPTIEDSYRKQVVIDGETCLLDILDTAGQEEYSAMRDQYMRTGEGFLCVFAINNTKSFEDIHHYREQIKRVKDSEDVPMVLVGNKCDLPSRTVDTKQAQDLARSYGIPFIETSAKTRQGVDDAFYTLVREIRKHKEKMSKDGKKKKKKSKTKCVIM
Outline: as §1

GP2D cells = assay: Ras cellular assay, growth of cells with K-Ras G12D mutation (CellTiter-Glo); type: cell-based; details: cell growth, Example 9, G12D mutation, read-out: IC50 against GP2D cells

T1 sequence (P01116 1-188 isoform P01116-2 G12V): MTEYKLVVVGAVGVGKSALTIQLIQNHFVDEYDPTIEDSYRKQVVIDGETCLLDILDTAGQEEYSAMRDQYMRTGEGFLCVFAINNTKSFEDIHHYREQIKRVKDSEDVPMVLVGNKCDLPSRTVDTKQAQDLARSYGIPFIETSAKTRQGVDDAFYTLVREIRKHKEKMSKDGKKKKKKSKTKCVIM

`N#Cc1c(N)sc2c(F)ccc(-c3c(Cl)c4c5c(nc(OC[C@@]67CCCN6C[C@H](F)C7)nc5c3F)N(CC(F)F)C(C3(F)CC3)CO4)c12` (stereo partly drawn) [Compound 943, 2-amino-4-(8-chloro-4-(2,2-difluoroethyl)-10-fluoro-5-(1-fluorocyclopropyl)-2-(((2R,7aS)-2-fluorotetrahydro-1H-pyrrolizin-7a(5H)-yl)methoxy)-5,6-dihydro-4H-[1,4]oxazepino[5,6,7-de]quinazolin-9-yl)-7-fluorobenzo[b]thiophene-3-carbonitrile] was tested, and the IC50 (K-Ras G12V) was under 0.1 µM, the IC50 (K-Ras G12D) was under 0.1 µM and the IC50 (SW620 cells) was under 5 µM. For the same compound, the IC50 (K-Ras WT) was under 0.1 µM, the IC50 (K-Ras G12S) was under 0.1 µM and the IC50 (GP2D cells) was under 0.5 µM.
In the case of `N#Cc1c(N)sc2c(F)ccc(-c3c(Cl)c4c5c(nc(OC[C@@]67CCCN6C[C@H](F)C7)nc5c3F)N(CCC(F)F)[C@@H](C3(O)CC3)CO4)c12` [Compound 986, 2-amino-4-((R)-8-chloro-4-(3,3-difluoropropyl)-10-fluoro-2-(((2R,7aS)-2-fluorotetrahydro-1H-pyrrolizin-7a(5H)-yl)methoxy)-5-(1-hydroxycyclopropyl)-5,6-dihydro-4H-[1,4]oxazepino[5,6,7-de]quinazolin-9-yl)-7-fluorobenzo[b]thiophene-3-carbonitrile], the IC50 (K-Ras G12V) is reported as under 0.1 µM, the IC50 (K-Ras G12D) is reported as under 0.1 µM and the IC50 (SW620 cells) is reported as under 5 µM. For the same compound, the IC50 (K-Ras WT) was under 0.1 µM, the IC50 (K-Ras G12S) was under 0.1 µM and the IC50 (GP2D cells) was under 0.5 µM.
`C[C@@H]1C[C@@H](N2CCOc3c(Cl)c(-c4ccc(F)c5sc(N)c(C#N)c45)c(F)c4nc(OC[C@@]56CCCN5C[C@H](F)C6)nc2c34)CN1` [Compound 1016, 2-amino-4-(8-chloro-10-fluoro-2-(((2R,7aS)-2-fluorotetrahydro-1H-pyrrolizin-7a(5H)-yl)methoxy)-4-((3R,5R)-5-methylpyrrolidin-3-yl)-5,6-dihydro-4H-[1,4]oxazepino[5,6,7-de]quinazolin-9-yl)-7-fluorobenzo[b]thiophene-3-carbonitrile] gave an IC50 (K-Ras G12V) of under 0.1 µM, an IC50 (K-Ras G12D) of under 0.1 µM and an IC50 (SW620 cells) of under 5 µM. It also gave an IC50 (K-Ras WT) of under 0.1 µM, an IC50 (K-Ras G12S) of under 0.1 µM and an IC50 (GP2D cells) of under 0.5 µM.
`N#Cc1c(N)sc2c(F)ccc(-c3c(Cl)c4c5c(nc(OC[C@@]67CCCN6C[C@H](F)C7)nc5c3F)N(CC(F)F)[C@@H](C3CC3)CO4)c12` [Compound 1022, 2-amino-4-((S)-8-chloro-5-cyclopropyl-4-(2,2-difluoroethyl)-10-fluoro-2-(((2R,7aS)-2-fluorotetrahydro-1H-pyrrolizin-7a(5H)-yl)methoxy)-5,6-dihydro-4H-[1,4]oxazepino[5,6,7-de]quinazolin-9-yl)-7-fluorobenzo[b]thiophene-3-carbonitrile] showed an IC50 (K-Ras G12V) of under 0.1 µM, an IC50 (K-Ras G12D) of under 0.1 µM and an IC50 (SW620 cells) of under 5 µM. The IC50 (K-Ras WT) was under 0.1 µM, the IC50 (K-Ras G12S) was under 0.1 µM and the IC50 (GP2D cells) was under 0.5 µM.
`N#Cc1c(N)sc2c(F)ccc(-c3c(Cl)c4c5c(nc(OC[C@@]67CCCN6C[C@H](F)C7)nc5c3F)N(C3CCOC3)[C@@H](C3(O)CC3)CO4)c12` (stereo partly drawn) [Compound 1031, 2-amino-4-((5R)-8-chloro-10-fluoro-2-(((2R,7aS)-2-fluorotetrahydro-1H-pyrrolizin-7a(5H)-yl)methoxy)-5-(1-hydroxycyclopropyl)-4-(tetrahydrofuran-3-yl)-5,6-dihydro-4H-[1,4]oxazepino[5,6,7-de]quinazolin-9-yl)-7-fluorobenzo[b]thiophene-3-carbonitrile] showed an IC50 (K-Ras G12V) of under 0.1 µM, an IC50 (K-Ras G12D) of under 0.1 µM and an IC50 (SW620 cells) of under 5 µM. It also gave an IC50 (K-Ras WT) of under 0.1 µM, an IC50 (K-Ras G12S) of under 0.1 µM and an IC50 (GP2D cells) of under 0.5 µM.
With `N#Cc1c(N)sc2c(F)ccc(-c3c(Cl)c4c5c(nc(OC[C@@]67CCCN6C[C@H](F)C7)nc5c3F)N(CCC(F)F)[C@@H](C(F)F)CO4)c12` [Compound 1035, 2-amino-4-((R)-8-chloro-5-(difluoromethyl)-4-(3,3-difluoropropyl)-10-fluoro-2-(((2R,7aS)-2-fluorotetrahydro-1H-pyrrolizin-7a(5H)-yl)methoxy)-5,6-dihydro-4H-[1,4]oxazepino[5,6,7-de]quinazolin-9-yl)-7-fluorobenzo[b]thiophene-3-carbonitrile] the IC50 (K-Ras G12V) was under 0.1 µM, the IC50 (K-Ras G12D) was under 0.1 µM and the IC50 (SW620 cells) was under 5 µM. It also gave an IC50 (K-Ras WT) of under 0.1 µM, an IC50 (K-Ras G12S) of under 0.1 µM and an IC50 (GP2D cells) of under 0.5 µM.
For `CC(C)(O)[C@H]1COc2c(Cl)c(-c3ccc(F)c4sc(N)c(C#N)c34)c(F)c3nc(OC[C@@]45CCCN4C[C@H](F)C5)nc(c23)N1C1CCOC1` (stereo partly drawn) [Compound 1041, 2-amino-4-((5R)-8-chloro-10-fluoro-2-(((2R,7aS)-2-fluorotetrahydro-1H-pyrrolizin-7a(5H)-yl)methoxy)-5-(2-hydroxypropan-2-yl)-4-(tetrahydrofuran-3-yl)-5,6-dihydro-4H-[1,4]oxazepino[5,6,7-de]quinazolin-9-yl)-7-fluorobenzo[b]thiophene-3-carbonitrile], the IC50 (K-Ras G12V) was under 0.1 µM, the IC50 (K-Ras G12D) was under 0.1 µM and the IC50 (SW620 cells) was under 5 µM. It also gave an IC50 (K-Ras WT) of under 0.1 µM, an IC50 (K-Ras G12S) of under 0.1 µM and an IC50 (GP2D cells) of under 0.5 µM.
`C[C@H](O)[C@H]1[C@H](C)Oc2c(Cl)c(-c3ccc(F)c4sc(N)c(C#N)c34)c(F)c3nc(OC[C@@]45CCCN4C[C@H](F)C5)nc(c23)N1CC(F)F` [Compound 1042, 2-amino-4-((5S,6S)-8-chloro-4-(2,2-difluoroethyl)-10-fluoro-2-(((2R,7aS)-2-fluorotetrahydro-1H-pyrrolizin-7a(5H)-yl)methoxy)-5-((S)-1-hydroxyethyl)-6-methyl-5,6-dihydro-4H-[1,4]oxazepino[5,6,7-de]quinazolin-9-yl)-7-fluorobenzo[b]thiophene-3-carbonitrile] was tested, and the IC50 (K-Ras G12V) was under 0.1 µM, the IC50 (K-Ras G12D) was under 0.1 µM and the IC50 (SW620 cells) was under 5 µM. The IC50 (K-Ras WT) was under 0.1 µM, the IC50 (K-Ras G12S) was under 0.1 µM and the IC50 (GP2D cells) was under 0.5 µM.
`CC(C)(O)C1COc2c(Cl)c(-c3ccc(F)c4sc(N)c(C#N)c34)c(F)c3nc(OC[C@@]45CCCN4C[C@H](F)C5)nc(c23)N1CCC(F)F` (stereo partly drawn) [Compound 1050, 2-amino-4-(8-chloro-4-(3,3-difluoropropyl)-10-fluoro-2-(((2R,7aS)-2-fluorotetrahydro-1H-pyrrolizin-7a(5H)-yl)methoxy)-5-(2-hydroxypropan-2-yl)-5,6-dihydro-4H-[1,4]oxazepino[5,6,7-de]quinazolin-9-yl)-7-fluorobenzo[b]thiophene-3-carbonitrile] gave an IC50 (K-Ras G12V) of under 0.1 µM, an IC50 (K-Ras G12D) of under 0.1 µM and an IC50 (SW620 cells) of under 5 µM. For the same compound, the IC50 (K-Ras WT) was under 0.1 µM, the IC50 (K-Ras G12S) was under 0.1 µM and the IC50 (GP2D cells) was under 0.5 µM.
`N#Cc1c(N)sc2c(F)ccc(-c3c(Cl)c4c5c(nc(OC[C@@]67CCCN6C[C@H](F)C7)nc5c3F)N([C@H]3CNC[C@H]3F)CCO4)c12` [Compound 1070, 2-amino-4-(8-chloro-10-fluoro-4-((3S,4R)-4-fluoropyrrolidin-3-yl)-2-(((2R,7aS)-2-fluorotetrahydro-1H-pyrrolizin-7a(5H)-yl)methoxy)-5,6-dihydro-4H-[1,4]oxazepino[5,6,7-de]quinazolin-9-yl)-7-fluorobenzo[b]thiophene-3-carbonitrile] was tested, and the IC50 (K-Ras G12V) was under 0.1 µM, the IC50 (K-Ras G12D) was under 0.1 µM and the IC50 (SW620 cells) was under 5 µM. For the same compound, the IC50 (K-Ras WT) was under 0.1 µM, the IC50 (K-Ras G12S) was under 0.1 µM and the IC50 (GP2D cells) was under 0.5 µM.
`N#Cc1c(N)sc2c(F)ccc(-c3c(Cl)c4c5c(nc(OC[C@@]67CCCN6C[C@H](F)C7)nc5c3F)N[C@@H](C3(O)CC3)CO4)c12` [Compound 1076, 2-amino-4-((R)-8-chloro-10-fluoro-2-(((2R,7aS)-2-fluorotetrahydro-1H-pyrrolizin-7a(5H)-yl)methoxy)-5-(1-hydroxycyclopropyl)-5,6-dihydro-4H-[1,4]oxazepino[5,6,7-de]quinazolin-9-yl)-7-fluorobenzo[b]thiophene-3-carbonitrile] showed an IC50 (K-Ras G12V) of under 0.1 µM, an IC50 (K-Ras G12D) of under 0.1 µM and an IC50 (SW620 cells) of under 5 µM. It also gave an IC50 (K-Ras WT) of under 0.1 µM, an IC50 (K-Ras G12S) of under 0.1 µM and an IC50 (GP2D cells) of under 0.5 µM.
In the case of `CN1c2nc(OC[C@@]34CCCN3C[C@H](F)C4)nc3c(F)c(-c4ccc(F)c5sc(N)c(C#N)c45)c(Cl)c(c23)OC[C@@H]1CNC=O` [Compound 1097, N-(((5S)-9-(2-amino-3-cyano-7-fluorobenzo[b]thiophen-4-yl)-8-chloro-10-fluoro-2-(((2R,7aS)-2-fluorotetrahydro-1H-pyrrolizin-7a(5H)-yl)methoxy)-4-methyl-5,6-dihydro-4H-[1,4]oxazepino[5,6,7-de]quinazolin-5-yl)methyl)formamide], the IC50 (K-Ras G12V) is reported as under 0.1 µM, the IC50 (K-Ras G12D) is reported as under 0.1 µM and the IC50 (SW620 cells) is reported as under 5 µM. It also gave an IC50 (K-Ras WT) of under 0.1 µM, an IC50 (K-Ras G12S) of under 0.1 µM and an IC50 (GP2D cells) of under 0.5 µM.
`CC(O)C1COc2c(Cl)c(-c3ccc(F)c4sc(N)c(C#N)c34)c(F)c3nc(OC[C@@]45CCCN4C[C@H](F)C5)nc(c23)N1CC1CCNCC1` (stereo partly drawn) [Compound 1125, 2-amino-4-(8-chloro-10-fluoro-2-(((2R,7aS)-2-fluorotetrahydro-1H-pyrrolizin-7a(5H)-yl)methoxy)-5-(1-hydroxyethyl)-4-(piperidin-4-ylmethyl)-5,6-dihydro-4H-[1,4]oxazepino[5,6,7-de]quinazolin-9-yl)-7-fluorobenzo[b]thiophene-3-carbonitrile] gave an IC50 (K-Ras G12V) of under 0.1 µM, an IC50 (K-Ras G12D) of under 0.1 µM and an IC50 (SW620 cells) of under 5 µM. It also gave an IC50 (K-Ras WT) of under 0.1 µM, an IC50 (K-Ras G12S) of under 0.1 µM and an IC50 (GP2D cells) of under 0.5 µM.
